In the supplement of paper PMC4862054:

system: CAL-51; test: normalised response (% of control), CellTox Green; higher = less cell death (100 = DMSO, 0 = benzethonium chloride kill control); settings: incubation time: 72 h
How it was run: (§1)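 Compound was dispensed into 384-well plates at 5 concentrations in 10-fold steps spanning a 10,000-fold range specific to that compound. Breast cancer cell lines were added as 20 µl suspension and left for 72 h before CellTox Green fluorescence (485/520 nm) and then CellTiter-Glo luminescence, read after 10 min at room temperature. Each reported value is the normalised signal at one concentration, with 0.1 % DMSO set at 100 and a positive kill control at 0 on each plate.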

Structure (SMILES) | normalised response
CN(C)C(=N)NC(=N)N [Metformin] (100000 nM) | 86.8%
CN(Cc1cnc2nc(N)nc(N)c2n1)c1ccc(C(=O)N[C@@H](CCC(=O)O)C(=O)O)cc1 [Methotrexate] (50000 nM) | 114%
C=CCN(/C=C1/C(=O)O[C@H](COC)[C@@]2(C)C1=C(O)C(=O)C1=C2[C@H](OC(C)=O)C[C@]2(C)C(=O)CC[C@@H]12)CC=C [Sonolisib] (10000 nM) | 90.6%

system: CAL-85-1; test: as above; settings: incubation time: 72 h
How it was run: as §1

Structure (SMILES) | normalised response
CCn1c(C(=O)N(C2CC2)C2CC2)cc2c3c(ncn3C)c(Nc3cc(C)n(C)n3)nc21 (10000 nM) | 102%
CN[C@@H](C)C(=O)N[C@H]1CN(C(=O)CC(C)C)CC[C@H]2CC[C@@H](C(=O)NC(c3ccccc3)c3ccccc3)N2C1=O [AT-406] (10000 nM) | 0.8%
CCN(CC)CCCC(C)Nc1ccnc2cc(Cl)ccc12 (stereo not given) [Chloroquine] (100000 nM) | -51.4%
CC(C)(C)c1nc(-c2cccc(NS(=O)(=O)c3c(F)cccc3F)c2F)c(-c2ccnc(N)n2)s1 [Dabrafenib] (2500 nM) | 83.9%
Cc1nc(C(=O)NCC(=O)O)c(O)c2ccc(Oc3ccccc3)cc12 [FG-4592] (10000 nM) | 78.6%
O=C(O)CNC(=O)c1c(O)c2ccccc2n(Cc2ccccc2)c1=O [IOX-2] (50000 nM) | 105%
CN(C)C(=N)NC(=N)N [Metformin] (100000 nM) | 125%
CN(Cc1cnc2nc(N)nc(N)c2n1)c1ccc(C(=O)N[C@@H](CCC(=O)O)C(=O)O)cc1 [Methotrexate] (50000 nM) | 64.1%
C=CCN(/C=C1/C(=O)O[C@H](COC)[C@@]2(C)C1=C(O)C(=O)C1=C2[C@H](OC(C)=O)C[C@]2(C)C(=O)CC[C@@H]12)CC=C [Sonolisib] (10000 nM) | 61.7%

system: DU-4475; test: as above; settings: incubation time: 72 h
How it was run: as §1

Structure (SMILES) | normalised response
CCn1c(C(=O)N(C2CC2)C2CC2)cc2c3c(ncn3C)c(Nc3cc(C)n(C)n3)nc21 (10000 nM) | 98.5%
CN[C@@H](C)C(=O)N[C@H]1CN(C(=O)CC(C)C)CC[C@H]2CC[C@@H](C(=O)NC(c3ccccc3)c3ccccc3)N2C1=O [AT-406] (10000 nM) | 95.4%
CCN(CC)CCCC(C)Nc1ccnc2cc(Cl)ccc12 (stereo not given) [Chloroquine] (100000 nM) | 48.9%
CC(C)(C)c1nc(-c2cccc(NS(=O)(=O)c3c(F)cccc3F)c2F)c(-c2ccnc(N)n2)s1 [Dabrafenib] (2500 nM) | 70.1%
Cc1nc(C(=O)NCC(=O)O)c(O)c2ccc(Oc3ccccc3)cc12 [FG-4592] (10000 nM) | 97.7%
O=C(O)CNC(=O)c1c(O)c2ccccc2n(Cc2ccccc2)c1=O [IOX-2] (50000 nM) | 97.8%
CN(C)C(=N)NC(=N)N [Metformin] (100000 nM) | 90.3%
CN(Cc1cnc2nc(N)nc(N)c2n1)c1ccc(C(=O)N[C@@H](CCC(=O)O)C(=O)O)cc1 [Methotrexate] (50000 nM) | 99%
C=CCN(/C=C1/C(=O)O[C@H](COC)[C@@]2(C)C1=C(O)C(=O)C1=C2[C@H](OC(C)=O)C[C@]2(C)C(=O)CC[C@@H]12)CC=C [Sonolisib] (10000 nM) | 107%

system: HCC1143; test: as above; settings: incubation time: 72 h
How it was run: as §1

Structure (SMILES) | normalised response
CN[C@@H](C)C(=O)N[C@H]1CN(C(=O)CC(C)C)CC[C@H]2CC[C@@H](C(=O)NC(c3ccccc3)c3ccccc3)N2C1=O [AT-406] (10000 nM) | 108%
CCN(CC)CCCC(C)Nc1ccnc2cc(Cl)ccc12 (stereo not given) [Chloroquine] (100000 nM) | 67.2%
CC(C)(C)c1nc(-c2cccc(NS(=O)(=O)c3c(F)cccc3F)c2F)c(-c2ccnc(N)n2)s1 [Dabrafenib] (2500 nM) | 120%
Cc1nc(C(=O)NCC(=O)O)c(O)c2ccc(Oc3ccccc3)cc12 [FG-4592] (10000 nM) | 118%
O=C(O)CNC(=O)c1c(O)c2ccccc2n(Cc2ccccc2)c1=O [IOX-2] (50000 nM) | 104%
C=CCN(/C=C1/C(=O)O[C@H](COC)[C@@]2(C)C1=C(O)C(=O)C1=C2[C@H](OC(C)=O)C[C@]2(C)C(=O)CC[C@@H]12)CC=C [Sonolisib] (10000 nM) | 117%

system: HCC1599; test: as above; settings: incubation time: 72 h
How it was run: as §1

Structure (SMILES) | normalised response
CCn1c(C(=O)N(C2CC2)C2CC2)cc2c3c(ncn3C)c(Nc3cc(C)n(C)n3)nc21 (10000 nM) | 94%
CN[C@@H](C)C(=O)N[C@H]1CN(C(=O)CC(C)C)CC[C@H]2CC[C@@H](C(=O)NC(c3ccccc3)c3ccccc3)N2C1=O [AT-406] (10000 nM) | 97.5%
CCN(CC)CCCC(C)Nc1ccnc2cc(Cl)ccc12 (stereo not given) [Chloroquine] (100000 nM) | 57%
CC(C)(C)c1nc(-c2cccc(NS(=O)(=O)c3c(F)cccc3F)c2F)c(-c2ccnc(N)n2)s1 [Dabrafenib] (2500 nM) | 103%
Cc1nc(C(=O)NCC(=O)O)c(O)c2ccc(Oc3ccccc3)cc12 [FG-4592] (10000 nM) | 99.9%
O=C(O)CNC(=O)c1c(O)c2ccccc2n(Cc2ccccc2)c1=O [IOX-2] (50000 nM) | 102%
CN(C)C(=N)NC(=N)N [Metformin] (100000 nM) | 76%
CN(Cc1cnc2nc(N)nc(N)c2n1)c1ccc(C(=O)N[C@@H](CCC(=O)O)C(=O)O)cc1 [Methotrexate] (50000 nM) | 101%
C=CCN(/C=C1/C(=O)O[C@H](COC)[C@@]2(C)C1=C(O)C(=O)C1=C2[C@H](OC(C)=O)C[C@]2(C)C(=O)CC[C@@H]12)CC=C [Sonolisib] (10000 nM) | 113%

system: HCC1937; test: as above; settings: incubation time: 72 h
How it was run: as §1

Structure (SMILES) | normalised response
CN[C@@H](C)C(=O)N[C@H]1CN(C(=O)CC(C)C)CC[C@H]2CC[C@@H](C(=O)NC(c3ccccc3)c3ccccc3)N2C1=O [AT-406] (10000 nM) | 84.8%
CCN(CC)CCCC(C)Nc1ccnc2cc(Cl)ccc12 (stereo not given) [Chloroquine] (100000 nM) | 18.7%
Cc1nc(C(=O)NCC(=O)O)c(O)c2ccc(Oc3ccccc3)cc12 [FG-4592] (10000 nM) | 72.6%
O=C(O)CNC(=O)c1c(O)c2ccccc2n(Cc2ccccc2)c1=O [IOX-2] (50000 nM) | 91.5%
